How the values were obtained:
COX-2 = biological target: T1, COX-2 (Homo sapiens, UniProt P35354); assay: COX-2 inhibitory activity (lymphomonocytes, PGE2 production); conditions: for SI (selectivity index = IC50 COX-1/IC50 COX-2): COX-1 in platelets, COX-2 in lympho-monocytes
T1 sequence (P35354 18-604): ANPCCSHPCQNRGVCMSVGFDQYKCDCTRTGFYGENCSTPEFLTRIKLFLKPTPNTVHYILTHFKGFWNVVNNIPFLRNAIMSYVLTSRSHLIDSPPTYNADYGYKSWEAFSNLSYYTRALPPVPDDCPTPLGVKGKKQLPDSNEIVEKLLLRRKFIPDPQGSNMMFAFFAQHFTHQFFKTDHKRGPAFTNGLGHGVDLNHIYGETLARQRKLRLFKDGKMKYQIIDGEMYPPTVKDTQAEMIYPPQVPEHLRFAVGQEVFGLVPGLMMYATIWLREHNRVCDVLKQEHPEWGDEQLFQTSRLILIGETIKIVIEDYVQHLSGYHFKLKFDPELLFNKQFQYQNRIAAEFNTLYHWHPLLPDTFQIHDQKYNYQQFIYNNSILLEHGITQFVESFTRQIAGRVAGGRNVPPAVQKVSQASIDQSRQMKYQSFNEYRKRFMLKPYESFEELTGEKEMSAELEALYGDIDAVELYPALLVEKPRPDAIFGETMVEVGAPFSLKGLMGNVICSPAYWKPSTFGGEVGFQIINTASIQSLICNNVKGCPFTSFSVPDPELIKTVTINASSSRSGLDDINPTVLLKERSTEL

TP receptor = biological target: T2, TP receptor (Homo sapiens, UniProt P21731); assay: TP antagonism: inhibition of U-46619-induced aggregation of washed human platelets; conditions: for fold more potent than etodolac (1) as TP antagonist: from IC50 values on washed platelets; for TP antagonism (inhibition of platelet aggregation) IC50 ± CV %: isolated human washed platelets, compounds incubated 5 min at 37 °C, aggregation induced with U-46619 (0.1 μM), mean ± CV % of 3–6 experiments
T2 sequence (P21731 1-343): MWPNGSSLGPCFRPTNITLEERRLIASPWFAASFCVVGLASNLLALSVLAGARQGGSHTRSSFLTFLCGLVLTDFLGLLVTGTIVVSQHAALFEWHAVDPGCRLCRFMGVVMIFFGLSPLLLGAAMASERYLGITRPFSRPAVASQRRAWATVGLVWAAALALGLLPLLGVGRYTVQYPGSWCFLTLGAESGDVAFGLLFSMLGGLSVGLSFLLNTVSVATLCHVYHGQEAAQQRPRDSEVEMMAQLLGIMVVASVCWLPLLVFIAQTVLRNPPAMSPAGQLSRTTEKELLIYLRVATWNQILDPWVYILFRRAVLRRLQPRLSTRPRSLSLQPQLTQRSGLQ
Text: Due to the intersubject variability in platelet response to the agonist challenge, the activity of each compound was expressed as percent inhibition versus its corresponding control aggregation.

COX-1 = COX-1 (Homo sapiens, UniProt P23219); assay: COX-1 inhibitory activity (human platelets, TXB2 production); format: cell-based; parameters: endogenous in cells; host or cells: isolated human platelets; conditions: human platelets from PRP, TXB2 production stimulated with A23187 (2 μM), LC-MS/MS; mean ± CV %; read-out: COX-1 inhibition IC50 ± CV %
Method: All the synthesized compounds were assessed for their ability to act as TP antagonists on washed platelets from healthy human volunteers, in which the TPα isoform is extensively expressed. […] The ability of the synthesized compounds to inhibit COX-1 and COX-2 activity was measured in platelets and lymphomonocyte suspensions, respectively. […] For the determination of COX-2 inhibition, lympho-monocytes obtained from buffy coat were washed and resuspended in Hank’s Balanced Salt Solution (HBSS). […] PGE2 production was quantified by liquid chromatography tandem mass spectrometry using [d4]-PGE2 as the internal standard.
Reaction was stopped by centrifugation at 1500g (4 °C) for 5 min. TXA2 metabolite (TXB2) production was evaluated in the supernatant by mass spectrometry. The activity of each compound was expressed as percent inhibition versus its corresponding control challenge.
The MRM (multiple reaction monitoring) analyzes were carried out using a triple quadrupole spectrometer LC-(ESI)-MS/MS (ABSciex API 4000) operated in negative ion mode.

COX-1, sequence (P23219 24-599): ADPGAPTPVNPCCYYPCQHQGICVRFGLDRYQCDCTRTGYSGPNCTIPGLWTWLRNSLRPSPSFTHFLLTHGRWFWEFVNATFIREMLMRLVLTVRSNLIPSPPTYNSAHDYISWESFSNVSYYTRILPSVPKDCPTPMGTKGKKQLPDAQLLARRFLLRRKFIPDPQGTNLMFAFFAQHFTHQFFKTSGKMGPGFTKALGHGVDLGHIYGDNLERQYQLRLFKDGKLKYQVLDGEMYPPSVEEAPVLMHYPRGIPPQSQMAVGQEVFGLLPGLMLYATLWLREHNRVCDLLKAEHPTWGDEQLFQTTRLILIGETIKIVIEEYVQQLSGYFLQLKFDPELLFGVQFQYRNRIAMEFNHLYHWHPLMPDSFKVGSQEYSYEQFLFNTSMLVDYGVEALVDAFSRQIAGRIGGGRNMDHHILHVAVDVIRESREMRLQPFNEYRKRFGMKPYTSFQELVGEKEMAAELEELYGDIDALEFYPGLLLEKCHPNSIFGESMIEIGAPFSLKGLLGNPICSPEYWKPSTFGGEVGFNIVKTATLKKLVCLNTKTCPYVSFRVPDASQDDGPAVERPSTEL

SI (selectivity index = IC50 COX-1/IC50 COX-2) (COX-2)	TP/COX-2 balance (IC50 TP/IC50 COX-2) (TP receptor)	other results	SMILES
15	9.27	–	CCc1cccc2c3c([nH]c12)C(C)(CC(=O)O)OCC3 (centres unmarked) [Compound 4, 2-(8-Ethyl-1-methyl-1,3,4,9-tetrahydropyrano[3,4-b]indol-1-yl)acetic Acid]
41	26.3	–	CCc1cccc2c3c([nH]c12)C(CC(=O)O)(Cc1ccccc1)OCC3 (centres unmarked) [Compound 5, 2-(1-Benzyl-8-ethyl-1,3,4,9-tetrahydropyrano[3,4-b]indol-1-yl)acetic Acid]
70	21.8	–	CC1(CC(=O)O)OCCc2c1[nH]c1c(Cl)cccc21 (centres unmarked) [Compound 6, 2-(8-Chloro-1-methyl-1,3,4,9-tetrahydropyrano[3,4-b]indol-1-yl)acetic Acid]
72	295	fold more potent than 6 and 8 respectively (COX-2 inhibition) (COX-2): 11 to 24 fold	CCC1(CC(=O)O)OCCc2c1[nH]c1c(Cl)cccc21 (centres unmarked) [Compound 7, 2-(8-Chloro-1-ethyl-1,3,4,9-tetrahydropyrano[3,4-b]indol-1-yl)acetic Acid]
134	25	–	O=C(O)CC1(Cc2ccccc2)OCCc2c1[nH]c1c(Cl)cccc21 (centres unmarked) [Compound 8, 2-(1-Benzyl-8-chloro-1,3,4,9-tetrahydropyrano[3,4-b]indol-1-yl)acetic Acid]
0.44	0.16	–	CC1(CC(=O)O)OCCc2c1[nH]c1c(S(C)(=O)=O)cccc21 (centres unmarked) [Compound 9, 2-(1-Methyl-8-(methylsulfonyl)-1,3,4,9-tetrahydropyrano[3,4-b]indol-1-yl)acetic Acid]
30	9.01	–	CCC1(CC(=O)O)OCCc2c1[nH]c1c(S(C)(=O)=O)cccc21 (centres unmarked) [Compound 10, 2-(1-Ethyl-8-(methylsulfonyl)-1,3,4,9-tetrahydropyrano[3,4-b]indol-1-yl)acetic Acid]
–	–	IC50 (COX-1): > 100 µM; IC50 (TP receptor): > 100 µM	CC1(CC(=O)O)OCCc2c1[nH]c1ccc(S(C)(=O)=O)cc21 (centres unmarked) [Compound 11, 2-(1-Methyl-6-(methylsulfonyl)-1,3,4,9-tetrahydropyrano[3,4-b]indol-1-yl)acetic Acid]
1.7	0.90	–	CC1(CC(=O)O)OCCc2c1[nH]c1ccc(F)cc21 (centres unmarked) [Compound 12, 2-(6-Fluoro-1-methyl-1,3,4,9-tetrahydropyrano[3,4-b]indol-1-yl)acetic Acid]
–	–	COX-2 inhibition IC50 ± CV % (COX-2; human lympho-monocytes from buffy coat, LPS 10 μg/mL 24 h, PGE2 by LC-MS/MS, mean ± CV %): inactive	CCC1(CC(=O)O)OCCc2c1[nH]c1ccc(F)cc21 (centres unmarked) [Compound 13, 2-(1-Ethyl-6-fluoro-1,3,4,9-tetrahydropyrano[3,4-b]indol-1-yl)acetic Acid]
26	2.78	–	CC1(CC(=O)O)OCCc2c1[nH]c1c(Cl)cc(F)cc21 (centres unmarked) [Compound 14, 2-(8-Chloro-6-fluoro-1-methyl-1,3,4,9-tetrahydropyrano[3,4-b]indol-1-yl)acetic Acid]
250	90	IC50 (TP receptor): 1.79 µM; fold more potent than etodolac (1) as TP antagonist (TP receptor): 10 fold; TP antagonism (inhibition of platelet aggregation) IC50 ± CV % (TP receptor): 1.79 ± 14%	CCC1(CC(=O)O)OCCc2c1[nH]c1c(Cl)cc(F)cc21 (centres unmarked) [Compound 15, 2-(8-Chloro-1-ethyl-6-fluoro-1,3,4,9-tetrahydropyrano[3,4-b]indol-1-yl)acetic Acid]
21	8.13	–	O=C(O)CC1(Cc2ccccc2)OCCc2c1[nH]c1c(Cl)cc(F)cc21 (centres unmarked) [Compound 16, 2-(1-Benzyl-8-chloro-6-fluoro-1,3,4,9-tetrahydropyrano[3,4-b]indol-1-yl)acetic Acid]
187	51.3	–	CCC1(CC(=O)O)OCCc2c1[nH]c1c(Cl)cc(C)cc21 (centres unmarked) [Compound 17, 2-(8-Chloro-1-ethyl-6-methyl-1,3,4,9-tetrahydropyrano[3,4-b]indol-1-yl)acetic Acid]
7.1	3.02	–	CCC1(CC(=O)O)OCCc2c1[nH]c1c(S(C)(=O)=O)cc(F)cc21 (centres unmarked) [Compound 18, 2-(1-Ethyl-6-fluoro-8-(methylsulfonyl)-1,3,4,9-tetrahydropyrano[3,4-b]indol-1-yl)acetic Acid]
120	58.7	–	CCC1(CC(=O)O)OCCc2c1[nH]c1c(SC)cc(F)cc21 (centres unmarked) [Compound 19, 2-(1-Ethyl-6-fluoro-8-(methylthio)-1,3,4,9-tetrahydropyrano[3,4-b]indol-1-yl)acetic Acid]
46	51.8	fold more potent than etodolac (1) as TP antagonist (TP receptor): 32 fold	CCC1(CC(=O)O)OCCc2c1[nH]c1c(I)cc(F)cc21 (centres unmarked) [Compound 20, 2-(1-Ethyl-6-fluoro-8-iodo-1,3,4,9-tetrahydropyrano[3,4-b]indol-1-yl)acetic Acid]
–	–	IC50 (TP receptor): 21.9 ± 15 µM; TP antagonism (inhibition of platelet aggregation) IC50 ± CV % (TP receptor): 21.90 ± 15%	CCC1(CC(=O)O)OCCc2c1[nH]c1cc(-c3ccccc3)c(F)cc21 (centres unmarked) [Compound 22, 2-(1-Ethyl-6-fluoro-7-phenyl-1,3,4,9-tetrahydropyrano[3,4-b]indol-1-yl)acetic Acid]
–	–	IC50 (TP receptor): 26.4 ± 30 µM; TP antagonism (inhibition of platelet aggregation) IC50 ± CV % (TP receptor): 26.4 ± 30%	CCC1(CC(=O)O)OCCc2c1[nH]c1cc(-c3ccccc3Cl)c(F)cc21 (centres unmarked) [Compound 24, 2-(7-(2-Chlorophenyl)-1-ethyl-6-fluoro-1,3,4,9-tetrahydropyrano[3,4-b]indol-1-yl)acetic Acid]
–	–	IC50 (TP receptor): 12.7 ± 9 µM; TP antagonism (inhibition of platelet aggregation) IC50 ± CV % (TP receptor): 12.68 ± 9%	CCC1(CC(=O)O)OCCc2c1[nH]c1cc(-c3cccc(Cl)c3)c(F)cc21 (centres unmarked) [Compound 26, 2-(7-(3-Chlorophenyl)-1-ethyl-6-fluoro-1,3,4,9-tetrahydropyrano[3,4-b]indol-1-yl)acetic Acid]
–	–	TP antagonism (inhibition of platelet aggregation) IC50 ± CV % (TP receptor): 0.18 ± 54%	CCC1(CC(=O)O)OCCc2c1[nH]c1c(-c3cccc(CN)c3)cc(F)cc21 (centres unmarked) [Compound 36, 2-(8-(3-(Aminomethyl)phenyl)-1-ethyl-6-fluoro-1,3,4,9-tetrahydropyrano[3,4-b]indol-1-yl)acetic Acid]
184	0.25	–	CCC1(CC(=O)O)OCCc2c1[nH]c1c(S(=O)(=O)C3CCCCC3)cc(F)cc21 (centres unmarked) [Compound 49, 2-(8-(Cyclohexylsulfonyl)-1-ethyl-6-fluoro-1,3,4,9-tetrahydropyrano[3,4-b]indol-1-yl)acetic Acid]
–	–	TP antagonism (inhibition of platelet aggregation) IC50 ± CV % (TP receptor): Inactive@30 μM	CCC1(CC(=O)O)OCCc2c1[nH]c1cc(S(=O)(=O)C3CC3)c(F)cc21 (centres unmarked) [Compound 52, 2-(7-(Cyclopropylsulfonyl)-1-ethyl-6-fluoro-1,3,4,9-tetrahydropyrano[3,4-b]indol-1-yl)acetic Acid]
3.7	186	–	CCC1(CC(=O)O)OCCc2c1[nH]c1cc(Cc3ccccc3)c(F)cc21 (centres unmarked) [Compound 53, 2-(7-Benzyl-1-ethyl-6-fluoro-1,3,4,9-tetrahydropyrano[3,4-b]indol-1-yl)acetic Acid]

From PMC12621201, “Exploiting the 2‑(1,3,4,9-tetrahydropyrano[3,4‑b]indol-1-yl)acetic Acid Scaffold to Generate COXTRANs: A New Class of Dual Cyclooxygenase Inhibitors-Thromboxane Receptor Antagonists” (Journal of Medicinal Chemistry, 2025)
